Test results: patent US4279994A (priority 1979, dated 1981)
Counter-ions that a name gives are not always drawn. Like-named read-outs stand apart in the source and are kept apart here.

Columns and labels:
Assay type in all cases: biochemical
lipase = assay: Effect on lipase under the test conditions
acetyl cholinesterase = acetyl cholinesterase (Homo sapiens, UniProt P22303)
pseudocholinesterase = biological target: T1, pseudocholinesterase (Homo sapiens, UniProt P06276); assay: Eserine salicylate added to fresh human serum specimens, absorbance change between 10 and 30 minutes incubation (Example 4); details: for Absorbance change: 10 to 30 minutes incubation
T1 construct: hydrolysis of S-acyl substrate (BALB) with chromogenic sulfhydryl reagent

butyryl cholinesterase = butyryl cholinesterase (Homo sapiens, UniProt P06276)
[1] = biological target: T2, human serum containing naturally occurring pseudocholinesterases (Homo sapiens, UniProt P06276)
T2 construct: human serum containing naturally occurring pseudocholinesterases; from tissue; host or cells: human serum (Serum A, Serum B)

[2] = Reagent without lipase and without eserine salt, used to assay cholinesterase solutions (Example 4); details: 1.17 units of acetyl cholinesterase or 0.36 units of butyryl cholinesterase; no lipase and no eserine salt
Method: The four-reagent kit of Example 1 is utilized as follows, using duplicate specimen vials labelled "Patient-Blank", "Patient", "Blank 10 Minutes" and "Blank 30 Minutes", and the following procedure.
The activity of serum lipase is proportional to the absorbance at 412 nanometers, and is calculated as follows:
Lipase activity per 20 minutes= Absorbance [patient vial-Blank vial] (30 minutes) -Absorbance [patient vial-Blank vial] (10 minutes)
A reagent composition is formulated to contain the following: […]
Final pH about 8.8. Using a procedure similar to that of Example 2, the reagent was used to assay solutions containing 1.17 units of acetyl cholinesterase (a true cholinesterase) or 0.36 units of butyryl cholinesterase (a pseudocholinesterase). Acetyl cholinesterase produced an absorbance change of 0.011 absorbance units and butyryl cholinesterase produced a change of 0.421 absorbance units.

T1 sequence (P06276 29-602): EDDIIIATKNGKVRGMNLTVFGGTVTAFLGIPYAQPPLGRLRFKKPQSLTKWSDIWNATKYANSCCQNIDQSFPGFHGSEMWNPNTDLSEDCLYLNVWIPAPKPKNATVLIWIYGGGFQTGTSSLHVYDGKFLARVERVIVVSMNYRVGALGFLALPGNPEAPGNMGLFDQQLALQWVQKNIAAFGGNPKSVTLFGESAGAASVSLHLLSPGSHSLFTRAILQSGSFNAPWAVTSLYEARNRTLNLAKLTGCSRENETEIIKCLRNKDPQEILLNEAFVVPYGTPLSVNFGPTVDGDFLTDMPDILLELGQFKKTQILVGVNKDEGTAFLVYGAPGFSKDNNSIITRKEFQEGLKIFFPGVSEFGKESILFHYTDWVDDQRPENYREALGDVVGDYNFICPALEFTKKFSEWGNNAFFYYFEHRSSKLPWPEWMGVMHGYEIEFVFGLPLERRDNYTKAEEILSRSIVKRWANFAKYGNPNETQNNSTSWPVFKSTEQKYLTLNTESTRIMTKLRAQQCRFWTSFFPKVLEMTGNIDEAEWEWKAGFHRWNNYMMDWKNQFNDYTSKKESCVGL
T2 sequence (P06276 29-602): as above
Chain of butyryl cholinesterase (P06276 29-602): as above
Chain of acetyl cholinesterase (P22303 32-614): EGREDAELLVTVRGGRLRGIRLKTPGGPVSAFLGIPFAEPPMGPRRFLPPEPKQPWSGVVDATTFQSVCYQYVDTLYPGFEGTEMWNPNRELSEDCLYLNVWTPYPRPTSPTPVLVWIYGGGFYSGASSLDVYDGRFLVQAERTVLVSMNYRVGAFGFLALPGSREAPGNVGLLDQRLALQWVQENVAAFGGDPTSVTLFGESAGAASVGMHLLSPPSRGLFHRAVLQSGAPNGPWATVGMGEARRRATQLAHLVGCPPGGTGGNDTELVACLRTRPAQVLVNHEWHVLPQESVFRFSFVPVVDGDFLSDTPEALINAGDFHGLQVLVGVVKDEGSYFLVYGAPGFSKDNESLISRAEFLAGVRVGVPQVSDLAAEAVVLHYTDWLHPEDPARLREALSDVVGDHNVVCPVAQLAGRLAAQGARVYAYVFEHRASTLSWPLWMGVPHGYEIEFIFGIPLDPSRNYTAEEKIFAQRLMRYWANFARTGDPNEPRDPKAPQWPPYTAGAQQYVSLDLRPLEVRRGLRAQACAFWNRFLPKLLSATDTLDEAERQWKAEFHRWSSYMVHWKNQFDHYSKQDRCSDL

CNC(=O)Oc1ccc2c(c1)[C@]1(C)CCN(C)[C@@H]1N2C [Eserine Salicylate, Eserine salicylate]
inhibition of lipase (lipase): does not inhibit lipase
Activity, Acetyl Cholinesterase (acetyl cholinesterase): 0.027 ΔAbsorbance per 20 minutes incubation
specificity for serum pseudocholinesterase (pseudocholinesterase): highly specific for serum pseudocholinesterase
improvement with increasing inhibitor concentration (pseudocholinesterase; concentrations increasing from 0.02 to 0.05 millimolar): little or no improvement
inhibition of pseudocholinesterase (in words) (pseudocholinesterase; fresh human serum, Example 4): inhibition of pseudocholinesterase
Absorbance change (pseudocholinesterase; fresh human serum, 5 microliters (0.005 millimolar) of 1 millimolar eserine salicylate added): 0.501
Absorbance change (pseudocholinesterase; fresh human serum, 10 microliters of 1 millimolar eserine salicylate added): 0.495
Absorbance change (pseudocholinesterase; fresh human serum, 20 microliters of 1 millimolar eserine salicylate added): 0.475
Absorbance change (pseudocholinesterase; fresh human serum, 30 microliters of 1 millimolar eserine salicylate added): 0.490
Absorbance change (pseudocholinesterase; fresh human serum, 40 microliters of 1 millimolar eserine salicylate added): 0.496
Absorbance change (pseudocholinesterase; fresh human serum, 50 microliters of 1 millimolar eserine salicylate added): 0.492
Activity, Butyryl Cholinesterase (butyryl cholinesterase): 0.182 ΔAbsorbance per 20 minutes incubation
inhibition of BALB hydrolysis by pseudocholinesterase (in words) (butyryl cholinesterase): significant inhibition
Activity, Serum A [1]: 0.078 ΔAbsorbance per 20 minutes incubation
Activity, Serum B [1]: 0.092 ΔAbsorbance per 20 minutes incubation

CN(C)C(=O)Oc1cccc([N+](C)(C)C)c1 [Neostigmine Methyl Sulfate, neostigmine methylsulfate]
Activity, Acetyl Cholinesterase (acetyl cholinesterase): 0.025 ΔAbsorbance per 20 minutes incubation
Activity, Butyryl Cholinesterase (butyryl cholinesterase): 0.187 ΔAbsorbance per 20 minutes incubation
inhibition of BALB hydrolysis by pseudocholinesterase (in words) (butyryl cholinesterase): significant inhibition
Activity, Serum A [1]: 0.098 ΔAbsorbance per 20 minutes incubation
Activity, Serum B [1]: 0.081 ΔAbsorbance per 20 minutes incubation

O=S(=O)(F)Cc1ccccc1 [PMSF, phenyl methyl sulfonyl fluoride]
Activity, Acetyl Cholinesterase (acetyl cholinesterase; 50 microliters of acetyl cholinesterase, 10.4 units per ml, Neostigmine Methyl Sulfate 0.037 mM, PMSF 0.37 mM): 0.021 ΔAbsorbance per 20 minutes incubation
Activity, Butyryl Cholinesterase (butyryl cholinesterase; 50 microliters of butyryl cholinesterase, 7.2 units per ml, Eserine Salicylate 0.037 μm, Neostigmine Methyl Sulfate 0.037 mM, PMSF 0.37 mM): 0.338 ΔAbsorbance per 20 minutes incubation
Activity, Serum A ([1]; 50 microliters of human Serum A, Eserine Salicylate 0.037 μm, Neostigmine Methyl Sulfate 0.037 mM, PMSF 0.37 mM): 0.487 ΔAbsorbance per 20 minutes incubation
Activity, Serum B ([1]; 50 microliters of human Serum B, Eserine Salicylate 0.037 μm, Neostigmine Methyl Sulfate 0.037 mM, PMSF 0.37 mM): 0.383 ΔAbsorbance per 20 minutes incubation
effect in inhibiting the interfering hydrolysis of the S-acyl compound (in words) ([1]; serum samples, without pseudocholinesterase inhibitor): little or no effect

Acetyl cholinesterase
Absorbance change [2]: 0.011 absorbance units
